Measurements as given in the NIST ThermoML archive (doi:10.1016/j.jct.2016.03.026).
Several values for one entry are separate records, joined by “and”; a condition that tells them apart may be missing. Equal entries are not always repeated.

Assay: xn = mol fraction of the nth substance listed
Settings: Fluid (supercritical or subcritical phases), Frequency=5 MHz, Pulse-echo method

O=C=O [carbon dioxide] + CO
Settings	speed of sound
323.14 K, 149990 kPa, x1 = 0.925	1157.7 m/s
323.14 K, 150010 kPa, x1 = 0.925	1157.8 m/s
323.14 K, 159990 kPa, x1 = 0.925	1186.2 m/s
323.14 K, 160000 kPa, x1 = 0.925	1187 m/s
323.14 K, 160010 kPa, x1 = 0.925	1186 m/s
323.14 K, 160050 kPa, x1 = 0.925	1186.2 m/s
323.14 K, 169940 kPa, x1 = 0.925	1213.1 m/s
323.14 K, 169980 kPa, x1 = 0.925	1213.1 m/s and 1213.3 m/s
323.14 K, 170010 kPa, x1 = 0.925	1213.2 m/s
323.14 K, 179960 kPa, x1 = 0.925	1239.4 m/s
323.14 K, 180000 kPa, x1 = 0.925	1239.1 m/s and 1239.5 m/s
323.14 K, 180100 kPa, x1 = 0.925	1239.2 m/s
323.14 K, 189980 kPa, x1 = 0.925	1263.9 m/s
323.14 K, 190000 kPa, x1 = 0.925	1264.3 m/s
323.14 K, 190010 kPa, x1 = 0.925	1264.5 m/s
323.14 K, 190050 kPa, x1 = 0.925	1264.6 m/s
323.15 K, 24960 kPa, x1 = 0.8502	549.5 m/s
323.15 K, 25000 kPa, x1 = 0.7534	585.5 m/s
323.15 K, 29950 kPa, x1 = 0.7534	635.7 m/s
323.15 K, 30020 kPa, x1 = 0.8502	602.8 m/s
323.15 K, 35040 kPa, x1 = 0.7534	680.4 m/s
323.15 K, 35100 kPa, x1 = 0.8502	648.9 m/s
323.15 K, 40000 kPa, x1 = 0.7534	719.1 m/s
323.15 K, 40050 kPa, x1 = 0.8502	688.4 m/s
323.15 K, 45010 kPa, x1 = 0.8502	724.5 m/s
323.15 K, 45070 kPa, x1 = 0.7534	755 m/s
323.15 K, 49920 kPa, x1 = 0.8502	757.3 m/s
323.15 K, 50420 kPa, x1 = 0.7534	789.8 m/s
323.15 K, 55040 kPa, x1 = 0.8502	788.7 m/s
323.15 K, 55120 kPa, x1 = 0.7534	818.2 m/s
323.15 K, 59980 kPa, x1 = 0.8502	817.2 m/s
323.15 K, 60110 kPa, x1 = 0.7534	846.6 m/s
323.15 K, 64840 kPa, x1 = 0.8502	843.5 m/s
323.15 K, 65810 kPa, x1 = 0.7534	876.8 m/s
323.15 K, 69880 kPa, x1 = 0.8502	869.3 m/s
323.15 K, 70220 kPa, x1 = 0.7534	899.1 m/s
323.15 K, 75110 kPa, x1 = 0.8502	894.6 m/s
323.15 K, 75220 kPa, x1 = 0.7534	923.1 m/s
323.15 K, 80180 kPa, x1 = 0.8502	918 m/s
323.15 K, 89680 kPa, x1 = 0.8502	959.3 m/s
323.15 K, 90000 kPa, x1 = 0.7534	988.1 m/s
323.15 K, 99900 kPa, x1 = 0.8502	1000.3 m/s
323.15 K, 100230 kPa, x1 = 0.7534	1029 m/s
323.15 K, 109760 kPa, x1 = 0.8502	1037.3 m/s
323.15 K, 109960 kPa, x1 = 0.7534	1065.3 m/s
323.15 K, 119510 kPa, x1 = 0.8502	1071.6 m/s
323.15 K, 120580 kPa, x1 = 0.7534	1102.5 m/s
323.15 K, 139890 kPa, x1 = 0.8502	1137.2 m/s
323.15 K, 140520 kPa, x1 = 0.7534	1166.6 m/s
323.15 K, 160410 kPa, x1 = 0.7534	1224.7 m/s
323.15 K, 180460 kPa, x1 = 0.7534	1278.6 m/s
323.16 K, 69980 kPa, x1 = 0.9803	855.3 m/s
323.16 K, 74960 kPa, x1 = 0.9803	879.8 m/s
323.16 K, 79950 kPa, x1 = 0.9803	903.2 m/s
323.16 K, 89640 kPa, x1 = 0.9803	945.6 m/s
323.16 K, 99690 kPa, x1 = 0.9803	986.1 m/s
323.16 K, 110360 kPa, x1 = 0.9803	1025.6 m/s
323.16 K, 120030 kPa, x1 = 0.9803	1059.8 m/s
323.16 K, 129970 kPa, x1 = 0.9803	1092.5 m/s
323.16 K, 140230 kPa, x1 = 0.9803	1124.5 m/s
323.16 K, 150140 kPa, x1 = 0.9803	1153.8 m/s
